This experiment deals with T1, ER protein (Homo sapiens, UniProt P03372).
T1 sequence (P03372 1-595): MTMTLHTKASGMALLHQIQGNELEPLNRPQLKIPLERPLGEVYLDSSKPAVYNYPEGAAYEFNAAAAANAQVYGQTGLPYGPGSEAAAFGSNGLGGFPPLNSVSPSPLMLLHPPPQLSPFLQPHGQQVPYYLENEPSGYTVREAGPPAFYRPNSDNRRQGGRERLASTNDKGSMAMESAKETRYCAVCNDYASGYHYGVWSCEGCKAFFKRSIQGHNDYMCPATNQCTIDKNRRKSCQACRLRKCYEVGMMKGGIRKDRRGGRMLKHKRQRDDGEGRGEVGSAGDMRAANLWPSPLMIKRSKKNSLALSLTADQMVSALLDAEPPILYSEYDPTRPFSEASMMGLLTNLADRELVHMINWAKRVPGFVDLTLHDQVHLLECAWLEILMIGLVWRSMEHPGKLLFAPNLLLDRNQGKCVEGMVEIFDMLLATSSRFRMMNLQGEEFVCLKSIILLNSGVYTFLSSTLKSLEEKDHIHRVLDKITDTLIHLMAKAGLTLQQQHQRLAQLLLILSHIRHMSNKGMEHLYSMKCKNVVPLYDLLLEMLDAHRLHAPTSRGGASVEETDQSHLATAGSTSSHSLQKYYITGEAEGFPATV
Briefly: Western blotting analysis of ER protein degradation in T47D cell line. Type of experiment: cell-based. Also on record: western blotting detection of the level of intracellular ER protein; endogenous in cells; host or cells: T47D. The note with it: T47D cells; for DC50: degradation of ER protein, drug treatment for 16 hours, Western blot gray values vs DMSO control, read-out: DC50 (nM)/T47Dcell line. As for the experimental part: T47D cells were cultured in an incubator with 5% CO2 at 37° C. Complete medium was RPMI1640 supplemented with 10% Foetal bovine serum (FBS), 100 U/ml Penicillin and Streptomycin, and 0.77 μg/mL recombinant human insulin. Western blotting analysis of T47D cell line: • Cells were plated in a 24-well plate at a cell seeding […] of 1.5×10^5 cells/mL, with 1 ml cell suspensions per well. • After 24 h the cells were adherent, and the cells in each well were treated with 1 μL a certain concentration of ER protein regulators of the present disclosure. […] Afterwards, the membranes were block by using the Blocking Buffer, and the antibody incubation and development were performed. (The above procedures were all based on the antibody product manual of the manufacturer) DC50 value (the drug concentration required for degrading proteins by 50%, abbreviated as DC50) reads method: comparing the gray values of the Western blotting bands for the drug treatment with the gray values of the Western blotting band for the DMSO control, and reading the drug concentration range corresponding to the gray value of the Western blotting bands for the drug treatment which is equal to half of the gray value of the Western blotting band for the DMSO control. DC50 value could also be calculated as follows: using software ImageJ to quantify the gray values of the Western blotting bands for the drug treatment, fitting the relationship curve between drug concentrations and gray values, and from the fitted curve, calculating the drug concentration corresponding to half of the gray value of the Western blotting band for the DMSO control.
(In general: In western blotting, separated proteins are transferred to a membrane and probed.)

Consider 13 compounds from patent US20220016102A1, “ER PROTEIN REGULATORS AND USE THEREOF” (ShanghaiTech University, priority 2018, published 2022).

SMILES strings stand for the structures.

In the case of `Cc1ncsc1-c1ccc(CNC(=O)[C@@H]2C[C@@H](O)CN2C(=O)[C@@H](NC(=O)CCCCC(=O)N2CCN(CCOc3ccc(C(=C(CCCl)c4ccccc4)c4ccc(O)cc4)cc3)CC2)C(C)(C)C)cc1` [SIAIS251043, (2S,4R)-1-((S)-2-(6-(4-(2-(4-(4-chloro-1-(4-hydroxyphenyl)-2-phenylbut-1-en-1-yl)phenoxy)ethyl)piperazin-1-yl)-6-oxohexanamido)-3,3-dimethylbutanoyl)-4-hydroxy-N-(4-(4-methylthiazol-5-yl)benzyl)pyrrolidine-2-carboxamide], the DC50 was under 50 nM.
`CN(CCOc1ccc(/C(=C(/CCCl)c2ccccc2)c2ccccc2)cc1)C(=O)CCN1CCN(CCNc2cccc3c2C(=O)N(C2CCC(=O)NC2=O)C3=O)CC1` (stereo not shown) [SIAIS208135, (Z)-N-(2-(4-(4-chloro-1,2-diphenylbut-1-en-1-yl)phenoxy)ethyl)-3-(4-(2-((2-(2,6-dioxopiperidin-3-yl)-1,3-dioxoisoindolin-4-yl)amino)ethyl)piperazin-1-yl)-N-methylpropanamide]: the DC50 was under 200 nM.
On the same count and under the same terms, the same measure for `Cc1ncsc1-c1ccc(CNC(=O)[C@@H]2C[C@@H](O)CN2C(=O)[C@@H](NC(=O)CCOCCOCCOCCC(=O)N(C)CCOc2ccc(/C(=C(/CCCl)c3ccccc3)c3ccccc3)cc2)C(C)(C)C)cc1` [SIAIS180024, (2S,4R)-1-((S)-2-(tert-butyl)-19-(4-((Z)-4-chloro-1,2-diphenylbut-1-en-1-yl)phenoxy)-17-methyl-4,16-dioxo-7,10,13-trioxa-3,17-diazanonadecanoyl)-4-hydroxy-N-(4-(4-methylthiazol-5-yl)benzyl)pyrrolidine-2-carboxamide]: under 50 nM; for `Cc1ncsc1-c1ccc(CNC(=O)[C@@H]2C[C@@H](O)CN2C(=O)[C@@H](NC(=O)CCCCCCCC(=O)N2CCN(CCOc3ccc(C(=C(CCCl)c4ccccc4)c4ccc(O)cc4)cc3)CC2)C(C)(C)C)cc1` [SIAIS251046, (2S,4R)-1-((S)-2-(9-(4-(2-(4-(4-chloro-1-(4-hydroxyphenyl)-2-phenylbut-1-en-1-yl)phenoxy)ethyl)piperazin-1-yl)-9-oxononanamido)-3,3-dimethylbutanoyl)-4-hydroxy-N-(4-(4-methylthiazol-5-yl)benzyl)pyrrolidine-2-carboxamide]: under 50 nM.
For the compound `Cc1ncsc1-c1ccc(CNC(=O)[C@@H]2C[C@@H](O)CN2C(=O)[C@@H](NC(=O)CCOCCOCCOCCOCCC(=O)N2CCN(CCOc3ccc(C(=C(CCCl)c4ccccc4)c4ccc(O)cc4)cc3)CC2)C(C)(C)C)cc1` [SIAIS251051, (2S,4R)-1-((S)-2-(tert-butyl)-19-(4-(2-(4-(4-chloro-1-(4-hydroxyphenyl)-2-phenylbut-1-en-1-yl)phenoxy)ethyl)piperazin-1-yl)-4,19-dioxo-7,10,13,16-tetraoxa-3-azanonadecanoyl)-4-hydroxy-N-(4-(4-methylthiazol-5-yl)benzyl)pyrrolidine-2-carboxamide], the DC50 was under 50 nM.
Still for that read-out and setting: next, `O=C(CCCCNc1cccc2c1C(=O)N(C1CCC(=O)NC1=O)C2=O)NCCOc1ccc(C(=C(CCCl)c2ccccc2)c2ccc(O)cc2)cc1` (stereo not shown) [SIAIS208144, N-(2-(4-(4-chloro-1-(4-hydroxyphenyl)-2-phenylbut-1-en-1-yl)phenoxy)ethyl)-5-((2-(2,6-dioxopiperidin-3-yl)-1,3-dioxoisoindolin-4-yl)amino)pentanamide]: under 100 nM.
On the same count and under the same terms, the same measure for `Cc1ncsc1-c1ccc(CNC(=O)[C@@H]2C[C@@H](O)CN2C(=O)[C@@H](NC(=O)CCCCCCC(=O)N(C)CCOc2ccc(/C(=C(/CCCl)c3ccccc3)c3ccccc3)cc2)C(C)(C)C)cc1` [SIAIS180033, N1-(2-(4-((Z)-4-chloro-1,2-diphenylbut-1-en-1-yl)phenoxy)ethyl)-N8-((S)-1-((2S,4R)-4-hydroxy-2-((4-(4-methylthiazol-5-yl)benzyl)carbamoyl)pyrrolidin-1-yl)-3,3-dimethyl-1-oxobutan-2-yl)-N1-methyloctanediamide]: under 50 nM; for `CCC(=C(c1ccc(O)cc1)c1ccc(OCCNC(=O)CCOCCOCCOCCC(=O)N[C@H](C(=O)N2C[C@H](O)C[C@H]2C(=O)NCc2ccc(-c3scnc3C)cc2)C(C)(C)C)cc1)c1ccc(O)cc1` [SIAIS208174, (2S,4R)-1-((S)-19-(4-(1,2-bis(4-hydroxyphenyl)but-1-en-1-yl)phenoxy)-2-(tert-butyl)-4,16-dioxo-7,10,13-trioxa-3,17-diazanonadecanoyl)-4-hydroxy-N-(4-(4-methylthiazol-5-yl)benzyl)pyrrolidine-2-carboxamide]: under 50 nM.
Turning to `Cc1ncsc1-c1ccc(CNC(=O)[C@@H]2C[C@@H](O)CN2C(=O)[C@@H](NC(=O)CCOCCOCCC(=O)N2CCN(CCOc3ccc(C(=C(CCCl)c4ccccc4)c4ccc(O)cc4)cc3)CC2)C(C)(C)C)cc1` [SIAIS251049, (2S,4R)-1-((S)-2-(3-(2-(3-(4-(2-(4-(4-chloro-1-(4-hydroxyphenyl)-2-phenylbut-1-en-1-yl)phenoxy)ethyl)piperazin-1-yl)-3-oxopropoxy)ethoxy)propanamido)-3,3-dimethylbutanoyl)-4-hydroxy-N-(4-(4-methylthiazol-5-yl)benzyl)pyrrolidine-2-carboxamide], the DC50 was under 50 nM.
For `NCCOc1ccc(C(=C(CCCl)c2ccccc2)c2ccc(O)cc2)cc1` [Toremifene derivative B, 4-(1-(4-(2-aminoethoxy)phenyl)-4-chloro-2-phenylbut-1-en-1-yl)phenol, reference compound], the “Degradation of the ER protein in the T47D cell line (Western blotting)” value (FIGS. 1(A)-(O)) was “did not degrade the ER protein”.
For the compound `Cc1ncsc1-c1ccc(CNC(=O)[C@@H]2C[C@@H](O)CN2C(=O)[C@@H](NC(=O)CCOCCOCCOCCOCCC(=O)N(C)CCOc2ccc(/C(=C(/CCCl)c3ccccc3)c3ccccc3)cc2)C(C)(C)C)cc1` [SIAIS180025, N1-(2-(4-((Z)-4-chloro-1,2-diphenylbut-1-en-1-yl)phenoxy)ethyl)-N16-((S)-1-((2S,4R)-4-hydroxy-2-((4-(4-methylthiazol-5-yl)benzyl)carbamoyl)pyrrolidin-1-yl)-3,3-dimethyl-1-oxobutan-2-yl)-N1-methyl-4,7,10,13-tetraoxahexadecanediamide], the DC50 is under 50 nM.
The same measure, in the same setting: the same measure for `Cc1ncsc1-c1ccc(CNC(=O)[C@@H]2C[C@@H](O)CN2C(=O)[C@@H](NC(=O)CCCCCC(=O)N(C)CCOc2ccc(/C(=C(/CCCl)c3ccccc3)c3ccccc3)cc2)C(C)(C)C)cc1` [SIAIS180029, N1-(2-(4-((Z)-4-chloro-1,2-diphenylbut-1-en-1-yl)phenoxy)ethyl)-N7-((S)-1-((2S,4R)-4-hydroxy-2-((4-(4-methylthiazol-5-yl)benzyl)carbamoyl)pyrrolidin-1-yl)-3,3-dimethyl-1-oxobutan-2-yl)-N1-methylheptanediamide]: 100 nM.
Still for that read-out and setting: the same measure for `Cc1ncsc1-c1ccc(CNC(=O)[C@@H]2C[C@@H](O)CN2C(=O)[C@@H](NC(=O)CCCCCCCC(=O)N(C)CCOc2ccc(/C(=C(/CCCl)c3ccccc3)c3ccccc3)cc2)C(C)(C)C)cc1` [SIAIS180035, N1-(2-(4-((Z)-4-chloro-1,2-diphenylbut-1-en-1-yl)phenoxy)ethyl)-N9-((S)-1-((2S,4R)-4-hydroxy-2-((4-(4-methylthiazol-5-yl)benzyl)carbamoyl)pyrrolidin-1-yl)-3,3-dimethyl-1-oxobutan-2-yl)-N1-methylnonanediamide]: under 200 nM.
